Assay results published in publication PMC9814838, “The orphan nuclear receptor Nurr1 is responsive to non-steroidal anti-inflammatory drugs” (Communications Chemistry, 2020).
Several values for one entry are separate records, joined by “and”; a condition that tells them apart may be missing. Equal values may be shown once. Entries after “also recorded” stand apart in the source; their conditions may differ.

B1: GFP-Nurr1 LBD (domain or fragment, human, UniProt P43354-1 364-598, looked up)
chain: LISALVRAHVDSNPAMTSLDYSRFQANPDYQMSGDDTQHIQQFYDLLTGSMEIIRGWAEKIPGFADLPKADQDLLFESAFLELFVLRLAYRSNPVEGKLIFCNGVVLHRLQCVRGFGEWIDSIVEFSSNLQNMNIDISAFSCIAALAMVTERHGLKEPKRVEELQNKIVNCLKDHVTFNNGGLNRPNYLSKLLGKLPELRTLCTQGLQRIFYLKLEDLVPPPAIIDKLFLDTLPF
notes: Superfolder GFP is the FRET acceptor; a BamHI site lies between GFP and the LBD; also called GFP-labeled Nurr1 LBD; source: E. coli T7 express with pGro7, purified (IMAC, TEV cleavage, reverse IMAC, SEC); not shown: His10, N-terminal, cleaved; superfolder GFP, N-terminal, kept
B2: biotinylated recombinant Nurr1 LBD (Tb-labeled through Tb-cryptate streptavidin) (domain or fragment, human, UniProt P43354-1 364-598, looked up)
chain: B1 chain
modifications: biotin on the lysine residue in the Avi-Tag
notes: In the assays coupled to terbium cryptate streptavidin conjugate (Tb-SA) as FRET donor; also called Tb-labeled Nurr1 LBD; Tb-cryptate-labeled Nurr1 LBD; source: E. coli T7 express with pGro7, purified (IMAC, TEV cleavage, amylose resin, birA biotinylation, monomeric avidin, SEC); not shown: MBP, N-terminal, cleaved; His8, N-terminal, cleaved; Avi-Tag, N-terminal, kept

What was measured:
Nurr1 [1] = target: T1, Nurr1 (Homo sapiens, UniProt P43354); assay: Gal4-Nurr1 hybrid reporter gene assay in HEK293T cells; format: cell-based; details: for Nurr1 activity 10μM (mean fold activation) / Nurr1 activity 30μM (mean fold activation): primary screen, n ≥ 2, ^# not significant vs VP16 control; for Nurr1-dependent reporter activity in primary screen (fold activation): 10 or 30 µM; for Gal4-Nurr1 maximum/minimum activation: vs 0.1% DMSO
T1 construct: Nurr1 (uniprot entry: hNURR1–P43354, residues 360–598); expressed in transfected cells; host or cells: HEK293T
T1 sequence (P43354 360-598): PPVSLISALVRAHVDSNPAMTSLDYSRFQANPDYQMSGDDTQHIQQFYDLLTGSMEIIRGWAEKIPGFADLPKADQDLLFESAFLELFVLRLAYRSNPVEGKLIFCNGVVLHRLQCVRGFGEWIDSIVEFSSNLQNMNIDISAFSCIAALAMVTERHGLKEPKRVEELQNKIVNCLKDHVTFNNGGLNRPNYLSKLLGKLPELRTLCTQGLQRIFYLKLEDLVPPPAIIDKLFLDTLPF

Nur77 = target: T2, Nur77 (Homo sapiens, UniProt P22736); assay: Gal4-Nur77 hybrid reporter gene assay in HEK293T cells; format: cell-based; details: for Nur77 activity 10μM (mean fold activation) / Nur77 activity 30μM (mean fold activation): primary screen, n ≥ 2, ^# not significant vs VP16 control
T2 construct: Nur77 (uniprot entry: hNUR77–P22736, residues 358–598); expressed in transfected cells; host or cells: HEK293T
T2 sequence (P22736 358-598): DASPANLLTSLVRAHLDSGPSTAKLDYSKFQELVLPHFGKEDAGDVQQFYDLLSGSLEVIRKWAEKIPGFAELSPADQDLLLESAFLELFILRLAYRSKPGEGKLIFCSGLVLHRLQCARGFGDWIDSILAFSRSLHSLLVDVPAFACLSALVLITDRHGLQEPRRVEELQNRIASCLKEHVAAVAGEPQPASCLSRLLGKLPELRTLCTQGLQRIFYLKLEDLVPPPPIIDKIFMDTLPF

NOR1 = target: T3, NOR1 (Homo sapiens, UniProt Q92570); assay: Gal4-NOR1 hybrid reporter gene assay in HEK293T cells; format: cell-based; details: for Nor1 activity 10μM (mean fold activation) / Nor1 activity 30μM (mean fold activation): primary screen, n ≥ 2, ^# not significant vs VP16 control; for NOR1 min./max. activation: compared to 0.1% DMSO
T3 construct: NOR1 (isoform alpha; uniprot entry: hNOR1–Q92570-1, residues 393–626); expressed in transfected cells; host or cells: HEK293T
T3 sequence (Q92570 393-626): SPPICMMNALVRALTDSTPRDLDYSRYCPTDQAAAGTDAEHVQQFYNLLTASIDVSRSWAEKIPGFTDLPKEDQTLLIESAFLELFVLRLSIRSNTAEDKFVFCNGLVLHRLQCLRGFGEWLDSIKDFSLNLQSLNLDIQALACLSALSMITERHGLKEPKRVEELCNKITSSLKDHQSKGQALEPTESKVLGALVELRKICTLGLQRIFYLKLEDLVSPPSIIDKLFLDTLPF

Gal4-VP16 = target: T4, Gal4-VP16 (Human herpesvirus 1, UniProt P06492); format: cell-based; details: n ≥ 4
T4 construct: host or cells: HEK293T

PPAR; RXRα; RARα = assay: Selectivity profiling in Gal4 hybrid reporter gene assays outside the NR4A family; format: cell-based, human; details: rel. activation vs reference agonists at 1 µM; n ≥ 4
NBRE: Nurr1 monomer = target: T5, NBRE: Nurr1 monomer (Homo sapiens, UniProt P43354); assay: Full-length Nurr1 reporter gene assay on NBRE response element; format: cell-based; details: full-length human Nurr1, HEK293T
T5 construct: the activity of full-length human Nurr1 in cellular settings; host or cells: HEK293T
T5 sequence (P43354 whole entry): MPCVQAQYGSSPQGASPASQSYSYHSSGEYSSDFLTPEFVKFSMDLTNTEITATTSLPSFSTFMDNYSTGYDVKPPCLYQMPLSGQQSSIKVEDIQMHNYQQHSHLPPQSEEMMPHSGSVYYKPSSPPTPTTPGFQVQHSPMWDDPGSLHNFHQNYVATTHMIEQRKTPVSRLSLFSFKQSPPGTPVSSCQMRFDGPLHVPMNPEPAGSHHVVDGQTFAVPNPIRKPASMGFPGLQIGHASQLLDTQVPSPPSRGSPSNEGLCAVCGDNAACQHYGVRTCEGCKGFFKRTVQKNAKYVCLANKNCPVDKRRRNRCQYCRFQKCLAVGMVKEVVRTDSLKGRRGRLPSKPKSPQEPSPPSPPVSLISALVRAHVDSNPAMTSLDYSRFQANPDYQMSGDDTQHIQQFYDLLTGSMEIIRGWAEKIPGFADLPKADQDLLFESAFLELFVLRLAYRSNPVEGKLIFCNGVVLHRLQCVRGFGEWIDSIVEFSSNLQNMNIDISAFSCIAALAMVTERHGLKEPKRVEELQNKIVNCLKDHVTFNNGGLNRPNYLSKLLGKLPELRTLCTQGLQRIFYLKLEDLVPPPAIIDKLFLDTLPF

NurRE: Nurr1 homodimer = target: T6, NurRE: Nurr1 homodimer (Homo sapiens, UniProt P43354); assay: Full-length Nurr1 reporter gene assay on NurRE response element; format: cell-based; details: mean ± SD
T6 construct: the activity of full-length human Nurr1 in cellular settings; host or cells: HEK293T
T6 sequence (P43354 whole entry): as above

[2] = target: T7, DR5: Nurr1–RXRα heterodimer (Homo sapiens, UniProt P43354); assay: Full-length Nurr1 reporter gene assay on DR5 response element; format: cell-based; details: mean ± SD
T7 construct: the activity of full-length human Nurr1 in cellular settings; host or cells: HEK293T
T7 sequence (P43354 whole entry, one chain of several): as the sequence (P43354 whole entry) above

Nurr1 LBD homodimer = target: T8, Nurr1 LBD homodimer (Homo sapiens, UniProt P43354); assay: Nurr1 homodimerization HTRF (GFP-Nurr1 LBD vs Tb-labeled Nurr1 LBD); format: biochemical; details: cell-free; ligand 100 µM
T8 construct: Nurr1 (uniprot entry: P43354-1, residues 364–598); MBP-Asn10 linker (N, cleaved yes); His8-Tag (N, cleaved yes); His10-Tag (N, cleaved yes); made in house; host or cells: E. coli T7 express (with pGro7)
Description: Strength and modulation of the formation of the heterodimer composed of the LBDs of Nurr1 and RXRα was investigated by titration of GFP-RXRα LBD against a fixed concentration of Nurr1 LBD. Assay solutions were prepared in HTRF assay buffer supplemented with 0.1% (w/v) CHAPS as well as 1% DMSO with test compounds at 100 µM or DMSO alone as negative control. […] Free GFP was added to keep the total GFP content stable at 4 µM throughout the entire series in order to suppress artefacts from changes in degree of diffusion enhanced FRET. Samples were equilibrated at RT for 2 h before FI520 and FI620 were recorded after excitation at 340 nm, and the HTRF signal was calculated as described above.

Nurr1–NCoR-1 interaction = target: T9, Nurr1–NCoR-1 interaction (Homo sapiens, UniProt P43354); assay: Nurr1–NCoR-1 interaction HTRF (GFP-Nurr1 LBD titrated against Tb-labeled NCoR-1); format: biochemical; details: cell-free; ligand fixed at 100 µM
T9 construct: Nurr1 (uniprot entry: P43354-1, residues 364–598); His10-Tag (N, cleaved yes); made in house; host or cells: E. coli T7 express (with pGro7)
Description: Since ligand concentration was fixed in this setting, interference with the HTRF system is less prone to generate potential artifacts.
To maintain a constant GFP concentration, free GFP protein was added to the dilution series. The experiments were performed in HTRF assay buffer (150 mM KF, 25 mM HEPES pH 7.5 (KOH), 5% (w/v) Glycerol, supplemented with 0.1% (w/v) CHAPS and 5 mM DTT) with 1% DMSO in an assay volume of 20 µl. After 1 h incubation at RT, fluorescence intensities after excitation at 340 nm were recorded at 520 nm for GFP acceptor fluorescence and 620 nm for Tb-SA donor fluorescence and the HTRF signal was calculated as described above.

Nurr1 [3] = system: Nurr1; design: method as in PMID 26124091; details: cited from earlier work
RXRα = target: T10, RXRα (Homo sapiens, UniProt P19793); assay: Gal4-RXRα hybrid reporter gene assay (selectivity); format: cell-based; details: selectivity profiling; also described previously
T10 construct: expressed in transfected cells; host or cells: HEK293T
T10 sequence (P19793 227-458 limits assumed): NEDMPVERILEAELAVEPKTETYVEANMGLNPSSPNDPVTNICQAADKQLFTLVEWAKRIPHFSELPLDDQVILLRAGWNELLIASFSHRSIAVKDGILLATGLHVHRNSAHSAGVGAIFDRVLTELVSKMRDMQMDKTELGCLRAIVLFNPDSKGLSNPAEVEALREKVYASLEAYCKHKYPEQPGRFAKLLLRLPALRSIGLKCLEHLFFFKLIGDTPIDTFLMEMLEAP

firefly luciferase = firefly luciferase (Photinus pyralis, UniProt P08659); assay: Firefly luciferase inhibition; details: compounds marked with * in Fig. 2a
firefly luciferase, sequence (P08659 whole entry, the tested form may be a part): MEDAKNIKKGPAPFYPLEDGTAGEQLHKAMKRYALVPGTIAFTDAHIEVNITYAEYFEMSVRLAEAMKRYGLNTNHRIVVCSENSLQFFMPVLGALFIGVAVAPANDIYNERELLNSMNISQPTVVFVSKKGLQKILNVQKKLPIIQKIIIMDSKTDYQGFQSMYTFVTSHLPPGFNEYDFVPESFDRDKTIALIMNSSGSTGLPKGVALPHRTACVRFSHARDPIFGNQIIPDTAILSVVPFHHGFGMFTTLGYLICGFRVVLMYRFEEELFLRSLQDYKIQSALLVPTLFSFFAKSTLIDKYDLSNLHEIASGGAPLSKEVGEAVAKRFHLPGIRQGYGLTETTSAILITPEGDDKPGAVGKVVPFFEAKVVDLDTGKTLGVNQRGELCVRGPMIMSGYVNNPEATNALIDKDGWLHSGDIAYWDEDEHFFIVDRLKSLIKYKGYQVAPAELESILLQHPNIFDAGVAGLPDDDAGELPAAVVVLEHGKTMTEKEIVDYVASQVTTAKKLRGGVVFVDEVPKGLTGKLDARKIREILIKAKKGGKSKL

[4] = target: B2; assay: AlphaScreen or HTRF; Nurr1 homodimerization: GFP-Nurr1 LBD titrated from 500 nM against biotinylated Nurr1 LBD 0.375 nM on Tb-SA 0.75 nM; free GFP added to keep total GFP at 500 nM; HTRF assay buffer with 0.1% CHAPS; 1% DMSO alone or with AQ, CQ, parecoxib or oxaprozin at 100 µM; 2 h at RT; details: both partners purified
GFP-RXRα LBD = target: T11, GFP-RXRα LBD (human, UniProt P19793-1 226-462); assay: AlphaScreen or HTRF; Nurr1-RXR heterodimerization: GFP-RXRα LBD titrated from 4 µM (dilution factor 0.7) against biotinylated Nurr1 LBD 0.375 nM on Tb-SA 0.75 nM; free GFP added to keep total GFP at 4 µM; HTRF assay buffer with 0.1% CHAPS; 1% DMSO alone or with AQ, CQ, MFA, parecoxib or oxaprozin at 100 µM; 2 h at RT; details: both partners purified
T11 construct: Superfolder GFP is the FRET acceptor; a BamHI site lies between GFP and the LBD; also called GFP-labeled RXRα LBD; source: E. coli T7 express with pGro7, purified (IMAC, TEV cleavage, reverse IMAC, SEC); not shown: His10, N-terminal, cleaved; superfolder GFP, N-terminal, kept
T11 sequence (looked up): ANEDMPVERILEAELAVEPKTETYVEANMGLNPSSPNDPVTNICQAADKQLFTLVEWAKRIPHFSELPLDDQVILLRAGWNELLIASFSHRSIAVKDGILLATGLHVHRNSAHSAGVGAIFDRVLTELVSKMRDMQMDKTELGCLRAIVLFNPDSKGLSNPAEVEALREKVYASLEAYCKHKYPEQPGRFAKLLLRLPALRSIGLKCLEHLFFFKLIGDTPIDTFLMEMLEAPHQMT

[5] = full-length human Nurr1, HEK293T
[6] = full-length human Nurr1 and RXRα overexpressed, HEK293T

Molecule	Nurr1 activity 10μM (mean fold activation) (Nurr1 [1]) [fold]	Nurr1 activity 30μM (mean fold activation) (Nurr1 [1])	Gal4-Nurr1 maximum/minimum activation (Nurr1 [1]; mean ± SD) [fold]	Nur77 activity 10μM (mean fold activation) (Nur77) [fold]	Nur77 activity 30μM (mean fold activation) (Nur77)	Nor1 activity 10μM (mean fold activation) (NOR1) [fold]	Nor1 activity 30μM (mean fold activation) (NOR1)	Control experiments on Gal4-VP16 (non-specific reporter effects) (Gal4-VP16)	Selectivity over PPAR, RXRα, RARα (PPAR; RXRα; RARα)	EC50 (Nurr1 [1]; HEK293T, mean ± SD, n≥3) [µM]	other results
Cc1onc(-c2ccccc2)c1-c1ccc(S(N)(=O)=O)cc1 [valdecoxib]	0.79	0.54 fold	0.52 ± 0.04	0.90	0.82 fold	1.05	0.76 fold	no non-specific reporter suppression	confirmed selectivity		Nurr1-dependent reporter activity in primary screen (fold activation) (Nurr1 [1]): < 0.80 fold; IC50 (Nurr1 [1]; HEK293T, mean ± SD, n≥3): 13 ± 3 µM
CCN(CC)Cc1cc(Nc2ccnc3cc(Cl)ccc23)ccc1O [AQ, amodiaquine]										36	EC50 (NBRE: Nurr1 monomer; mean ± SD): 92 µM; EC50 (NurRE: Nurr1 homodimer; [5]): 87 µM; EC50 [2, 6]: 97 µM; Homodimerization (effect of ligand) (Nurr1 LBD homodimer): promoted homodimerization; also recorded: Promotes dimerization; NCoR-1 affinity (effect of ligand) (Nurr1–NCoR-1 interaction): promoted the Nurr1–NCoR-1 interaction; also recorded: Enhances affinity; Nurr1 activation efficacy (Nurr1 [3]): ~ 3 fold
O=C(O)CCc1nc(-c2ccccc2)c(-c2ccccc2)o1 [oxaprozin]								no non-specific reporter suppression			NOR1 min./max. activation (NOR1; mean ± SD): ≥ 0.00; RXR agonism (RXRα): weak RXR agonism
O=C(O)COC(=O)Cc1ccccc1Nc1c(Cl)cccc1Cl [aceclofenac]	0.85	0.46 fold	1.99 ± 0.07	0.84	0.60 fold	0.94	0.49 fold		confirmed selectivity	2.5 ± 0.1	Inhibition of firefly luciferase (firefly luciferase): inhibit firefly luciferase
Cc1ccc(Nc2c(F)cccc2Cl)c(CC(=O)O)c1 [lumiracoxib]	0.90	0.76 fold		0.76	0.66 fold	0.86	0.79 fold				Inhibition of firefly luciferase (firefly luciferase): inhibit firefly luciferase
Cc1ccc(Cl)c(Nc2ccccc2C(=O)O)c1Cl [MFA, Meclofenamic acid]	3.60	toxic	3.52 ± 0.05	3.01	toxic	3.92	toxic	clearly Nurr1 mediated	confirmed selectivity	4.7	Nurr1-dependent reporter activity in primary screen (fold activation) (Nurr1 [1]): > 1.5 fold; Gal4-Nurr1 maximum/minimum activation (Nurr1 [1]; mean ± SD, listed as meclofenamic acid): 3.52 ± 0.05 fold and 3.52 ± 0.07 fold; EC50 (Nur77; HEK293T, mean ± SD, n≥3): 3.9 ± 0.7 µM; Nur77 min./max. activation (Nur77; compared to 0.1% DMSO, mean ± SD): 3.3 ± 0.4; EC50 (NOR1; HEK293T, mean ± SD, n≥3): 7.9 ± 0.8 µM; NOR1 min./max. activation (NOR1; mean ± SD): 5.5 ± 0.6; NBRE: Nurr1 monomer activity in words (NBRE: Nurr1 monomer): Inactive; IC50 (NurRE: Nurr1 homodimer; [5]): 5.2 µM; NurRE: Nurr1 homodimer maximum/minimum activation (NurRE: Nurr1 homodimer): 0.70 ± 0.01 fold; IC50 [2, 6]: 10.7 µM; DR5: Nurr1–RXRα heterodimer maximum/minimum activation [2]: 0.79 ± 0.01 fold; Homodimerization (effect of ligand) (Nurr1 LBD homodimer): entirely prevented homodimerization; also recorded: Decreases dimerization; NCoR-1 affinity (effect of ligand) (Nurr1–NCoR-1 interaction): markedly reduced affinity; also recorded: Decreases affinity
B1											binding result [4]: binds
B2											binding result (GFP-RXRα LBD): binds
